Patent US20040006142A1, “Ocular tension depressor” (priority 2002, published 2004)

Test: Ocular tension (IOP) lowering in rabbits after eye drop, Tonopen XL tonometer
Assay type: in vivo, Rabbits (New Zealand albino)
Details: eye drop of 0.5% preparation, 50 μL; for AUC0-8 hr Δ IOP % mean ± S.D.: IOP before, 2.5 h and 8 h after treatment, trapezoidal rule, change relative to pre-treatment; for ocular tension compared with the control group: p < 0.05 vs medium control
Protocol: Rabbits (New Zealand albino, body weight: 2.0 to 2.5 kg) having ocular tension of 15 mmHg before treated were used in this experiment. Experimental group of the rabbits were treated with an eye drop of the preparation of a 0.5% concentration of the compounds A and B with a dosage of 50 μL at a time. Control group of the rabbits were treated with an eye drop of a medium (ophthalmic solutions containing 0.40% of NaH2PO4, 0.47% of NaHPO4, 0.47% of NaCl, and 1.0% of polysorbate 80 with pH 6.8) with the same dosage as in the experimental group at a time. The ocular tension of the experimental group and the control group was measured with a Tonopen™ XL tonometer before treatment, 2.5 hours, and 8 hours after treatment.
Next, a ratio of ocular tension change relative to ocular tension measured before treatment (Δ IOP %) was calculated, and an area (AUC0-8hr Δ IOP %) defined by the area under the curve obtained by plotting out Δ IOP % with respect to the horizontal axis representing lapse of time was calculated in accordance with a method of trapezoidal rule.

SMILES | AUC0-8 hr Δ IOP % mean ± S.D. [%] | ocular tension compared with the control group
COc1cc(C(=O)N(C)c2ccc(C)cc2OCCCCCC(=O)N2CCN(C)CC2)ccc1NC(=O)c1ccccc1OCCCN [Compound A, 4-[2-(3-aminopropyl-1-yl)oxy]benzoylamino-3-methoxy-N-methyl-N-{4-methyl-2-[5-(4-methylpiperazin-1-yl)carbonylpent-1-yloxy]phenyl}benzamide] | −147.0 ± 89.0 | significantly lowered
Cc1ccc(-c2ccccc2C(=O)Nc2ccc(C(=O)N3CCC(=O)N(CC(=O)N4CCN(C)CC4)c4ccccc43)cc2)cc1 [Compound B, 5-{4-[2-(4-methylphenyl)benzoylamino]benzoyl}-1-[(4-methyl-1-piperazinyl)carbonylmethyl]-1,3,4,5-tetrahydro-1,5-benzodi azepin-2(2H)-one] | −145.8 ± 87.7 | significantly lowered
